Results on one compound are retold here after publication PMC5004205, “Spiro[pyrrolidine-3, 3´-oxindole] as potent anti-breast cancer compounds: Their design, synthesis, biological evaluation and cellular target identification” (Scientific Reports, 2016).

Molecules are shown by their SMILES.

The test concerns MCF-7 cell lysate. In words: Chemical proteomics target deconvolution with polymer-immobilized 5l. Format: binding, Human. The note with it: differential proteins common to three experiments, MS. Here is the method:
5l was provided as a lyophilized powder. A 100 mM stock of 5l was made in DMSO. The stock solution was diluted to 215 μM in 1 mM of phosphate buffer in pH 6.0 and incubated with the matrix for 16 hrs at room temperature. After incubation, the matrix was washed five times with Phosphate buffer. The amount of molecule in the phosphate buffer wash was quantified by HPLC-UV based method and amount of molecule retained on the matrix was calculated.
Cell lysates were prepared in RIPA buffer and protein concentration was determined by Bradford method. Cell lysate was diluted with 1X TBS to a concentration of 1 mg/ml. The 5l immobilized matrix was incubated with 2 ml of cell lysate for 2 min with mild shaking. The matrix was washed with 1X TBS to remove unbound proteins and to reduce non-specific interactions. The molecule bound proteins were then recovered by acetone precipitation and was dissolved in 1X sample buffer. Proteins were separated on a 4–12% gradient gel and bands were digested by standard “in-gel” trypsin digestion methods. […]
Agilent Mass Hunter software was used for data acquisition and analysis of Total ion chromatograms. […] The peptide sequence was also analysed for variable modifications such as methionine oxidation, acetylation, cysteine sulfoxide, deamidation and pyro glutamic acid modification.

Take `O=C1Nc2ccccc2C12CCNC2c1ccccc1` (stereo not shown) [Compound 5l]: the “Putative cellular binding targets” value was “HDAC2 and Prohibitin 2 are considered top priority targets”.
